Like-named read-outs stand apart in the source and are kept apart here.

The conditions of data set [1]: WHO class; cited from earlier work.
A further data set has as its system rat. Conditions: cited from earlier work.
For data set [2], the system named is SH-SY5Y cells. As to the kind of experiment: Intracellular ATP levels, luminescence assay. The data set is classed as cell-based, human. The procedure:
(§1) SH-SY5Y cells were differentiated as described by Encinas et al. (2000) after seeding onto either poly-D-Lysine hydrobromide (PDL) (50 µg/mL) (P6407, Sigma-Aldrich, Poole, UK) -coated cell cultureware or in 96-well microtitre plates (6005649, Perkin Elmer, Groningen, The Netherlands) with 10% FBS media and after settling, cells were grown to 60% confluency.
Undifferentiated and differentiated cells that were grown in 6-well plates were treated with MTT cell viability inhibition concentrations that produced 10, 20, 50, and an 80% loss of cell viability. Intracellular ATP levels were quantified using an ATP luminescence assay kit (ATP Bioluminescence Assay Kit CLS II (product 11 699 695 001, Roche, Germany), according to the manufacturer’s protocol. ATP standards were prepared according to the kit protocol across a concentration range of 1 × 10^−4 to 1 × 10^−10 M and after the addition of luciferase reagent to each well, the luminescence was measured using a luminometric plate reader (Thermo Fisher Scientific, Fluoroskan Ascent FC, Vantaa, Finland) using an integration time of 1 s. The ATP content in control and pesticide-treated samples were interpolated from the ATP standard curve. Experiments were performed in triplicates and five individual experiments were undertaken from which a mean was calculated, with blank values subtracted.

In data set [3] the test system is SH-SY5Y cells. Briefly: MTT cell viability assay. The data set is classed as cell-based, human. The conditions noted are these: read-out: MTT IC50. The protocol:
as §1
In brief, 3 × 10^4 cells/well were grown in laminin-coated 96-well clear-bottom tissue culture plates. Undifferentiated cells were challenged with each agent for 24 h within the concentration ranges specified by diluting each compound in the cell culture medium. Differentiated cells that were grown on 96-well plates were treated with each compound diluted in cell culture medium. After incubation with the compounds, spent media was removed and then replaced with the corresponding media for differentiated or undifferentiated cells containing 10% of 5 mg/mL MTT and incubated for 4 h. Wells that only received 10% MTT and respective growth media served as background controls. The formazan crystals generated were suspended in 1:1 DMSO and isopropanol solution and the absorbance of wells read at 570 nm using a spectrophotometer (Multiskan Spectrum, Thermo Electron Corporation, Vantaa, Finland). Experiments were performed in triplicates from which an average was taken, and blank (negative control) values were subtracted. Cell viability was expressed as a percentage of survival […] from at least five repeated experiments. The concentration of agent producing a 50% inhibition of cell viability (IC50 values) was obtained from the concentration-response curves and expressed as means ± standard error of the mean (SEM).

Data set [4] relates to differentiated SH-SY5Y cells. As to the kind of experiment: Neurite extension (neurite length) in differentiated cells, microscopy. The data set is classed as cell-based, human. Conditions: 24 h, read-out: Neurite Retraction IC50. The protocol: SH-SY5Y cells were seeded at 5 × 10^5 cells/well in 12-well poly-D-Lysine coated plates and grown for 24 h to ensure cell adhesion. Cells were then treated with pesticides in differentiation media for 24 h. Cell images were captured using a phase contrast microscope (Olympus, DP70, London, UK). Cells were considered differentiated if each neuronal cell contained at least one process that was longer than its cell body. The neurite length from 100 randomly chosen cells were measured in five selected regions of each well using the neurite tracer tool in Image J (Image J 1.49k, National Institute of Health, Bethesda, MD, USA). Results are expressed as mean percentage neurite length (±SEM) relative to vehicle-control treated cells.

For data set [5], the system named is SH-SY5Y cells. As to the kind of experiment: Lactate dehydrogenase (LDH) assay, extracellular LDH. The data set is classed as cell-based, human. The procedure:
as §1
The production of active extracellular LDH in response to pesticide exposures was measured using an LDH assay kit (ab65393, Abcam, Cambridge, UK) according to the manufacturer’s instructions. After agent treatment (1–200 µM, or vehicle control), 50 µL of spent media was removed and LDH activity was measured spectrophotometrically at 450 nm (Multiskan Spectrum, Thermo Electron Corporation, Finland). Assays were performed in triplicates, with blank values from a negative control subtracted from test values. IC50 values were obtained from the concentration-response curves and expressed as means ± standard error of the mean (SEM). Experiments were performed with an n-number of at least five.

For data set [6], the target named is T1, acetylcholinesterase (AChE) (Homo sapiens, UniProt P22303).
T1 construct: endogenous in cells; host or cells: SH-SY5Y human neuroblastoma cells (ECACC-94030304), undifferentiated and differentiated
As to the kind of experiment: cell-based. The conditions noted are these: 24 h.
Method: Inhibition of AChE was assessed using an Ellman’s assay modified for harvested cells [32, 33]. […] The supernatant was discarded, and the resultant cell pellet was retained and resuspended in 1 mL of potassium phosphate buffer pH 8.0. A volume of 100 µL was then assayed as a 1:1 mixture with ATCI and DTNB. […] Since the absorbance background increased with time, the associated absorbance of buffer blanks was subtracted at each time point for each data point. Corrected absorbance readings for each treatment were normalized to the means of the vehicle control and AChE activity presented as a percentage relative to the vehicle control.

The mark [7] stands for this setting: Homo sapiens, differentiated SH-SY5Y cells.

T1 sequence (P22303 32-614): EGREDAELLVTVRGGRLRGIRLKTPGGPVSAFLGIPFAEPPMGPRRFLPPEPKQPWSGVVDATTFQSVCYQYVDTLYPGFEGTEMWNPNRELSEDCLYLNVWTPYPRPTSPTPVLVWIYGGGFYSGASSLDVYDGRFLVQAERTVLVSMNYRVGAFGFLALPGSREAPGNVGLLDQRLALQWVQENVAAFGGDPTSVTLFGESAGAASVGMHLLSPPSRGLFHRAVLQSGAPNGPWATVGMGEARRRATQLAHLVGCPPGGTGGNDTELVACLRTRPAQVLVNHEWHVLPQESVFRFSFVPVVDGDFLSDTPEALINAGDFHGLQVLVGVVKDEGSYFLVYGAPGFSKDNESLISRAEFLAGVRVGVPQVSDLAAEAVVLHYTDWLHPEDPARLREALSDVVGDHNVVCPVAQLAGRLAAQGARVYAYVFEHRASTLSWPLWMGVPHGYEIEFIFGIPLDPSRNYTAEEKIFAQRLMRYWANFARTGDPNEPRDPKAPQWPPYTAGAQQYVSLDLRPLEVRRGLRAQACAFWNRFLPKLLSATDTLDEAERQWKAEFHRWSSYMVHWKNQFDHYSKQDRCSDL

As to `CNC(=O)O/N=C/C(C)(C)SC` [Aldicarb, [(E)-(2-methyl-2-methylsulfanylpropylidene)amino] N-methylcarbamate], the hazard classification entry in data set [1] is “Class Ia”. In addition, the “rat oral LD50” value in the data set on rat was 0.65 mg/kg. Moreover, the IC50 in the data set with SH-SY5Y cells [2] (Homo sapiens, SH-SY5Y, differentiated SH-SY5Y cells, read-out: ATP IC50) was 32.4 ± 1.2 µM; in the data set on SH-SY5Y cells [2] (Homo sapiens, SH-SY5Y, undifferentiated SH-SY5Y cells, read-out: ATP IC50), 40.2 ± 2.9 µM; in the data set on SH-SY5Y cells [3] (setting [7]), 31.6 ± 2.2 µM; in the data set with SH-SY5Y cells [3] (Homo sapiens, undifferentiated SH-SY5Y cells, 24 h exposure), 39.6 ± 3.6 µM; in data set [4] (setting [7]), 30.2 ± 4.7 µM; with SH-SY5Y cells [5] (Homo sapiens, SH-SY5Y, 24 h, differentiated SH-SY5Y cells, 24 h exposure, read-out: LDH IC50), 29.9 ± 1.6 µM. Also, the IC50 in the data set on SH-SY5Y cells [5] (Homo sapiens, SH-SY5Y, 24 h, undifferentiated SH-SY5Y cells, 24 h exposure, read-out: LDH IC50) came out at 35.4 ± 1.4 µM.

For `CCOP(=O)(OCC)Oc1nc(Cl)c(Cl)cc1Cl` [CPO, diethyl (3,5,6-trichloropyridin-2-yl) phosphate], the IC50 in the data set on SH-SY5Y cells [2] (differentiated SH-SY5Y cells, read-out: ATP IC50) came out at 18.8 ± 0.1 µM; in the data set with SH-SY5Y cells [2] (undifferentiated SH-SY5Y cells, read-out: ATP IC50), 29.6 ± 2.1 µM; with SH-SY5Y cells [3] (differentiated SH-SY5Y cells), 17.3 ± 0.9 µM; in the data set with SH-SY5Y cells [3] (undifferentiated SH-SY5Y cells, 24 h exposure) it was 29.4 ± 2.1 µM; in data set [4] (differentiated SH-SY5Y cells), 10.8 ± 0.1 µM; in the data set on SH-SY5Y cells [5] (differentiated SH-SY5Y cells, 24 h exposure, read-out: LDH IC50), 17.2 ± 1.1 µM. Besides, in the data set on SH-SY5Y cells [5] (undifferentiated SH-SY5Y cells, 24 h exposure, read-out: LDH IC50), the IC50 is 27.8 ± 2.1 µM.

Consider `CCOP(=S)(OCC)Oc1nc(Cl)c(Cl)cc1Cl` [chlorpyrifos, Chlorpyrifos], for which the “rat oral LD50” value in the data set on rat was 82 mg/kg.

On to `COP(=O)(OC)SCn1c(=O)oc2cc(Cl)cnc21` [AZO, 6-chloro-3-(dimethoxyphosphorylsulfanylmethyl)-[1,3]oxazolo[4,5-b]pyridin-2-one], for which the IC50 came to 0.22 µM in data set [6] (AChE Inhibition IC50, differentiated SH-SY5Y cells); 0.3 µM in data set [6] (AChE Inhibition IC50, undifferentiated SH-SY5Y cells); 20.7 ± 0.1 µM in the data set with SH-SY5Y cells [2] (Homo sapiens, SH-SY5Y, read-out: ATP IC50, differentiated SH-SY5Y cells); 26 ± 0.6 µM in the data set on SH-SY5Y cells [2] (Homo sapiens, SH-SY5Y, read-out: ATP IC50, undifferentiated SH-SY5Y cells); 26.9 ± 1.1 µM with SH-SY5Y cells [3] (Homo sapiens, SH-SY5Y, 24 h); 19.6 ± 0.5 µM in the data set on SH-SY5Y cells [3] (Homo sapiens, SH-SY5Y). Also, the half-inhibitory concentration (IC50) was determined as 16.5 ± 1.3 µM in data set [4] (Homo sapiens, SH-SY5Y); 20.5 ± 1.6 µM with SH-SY5Y cells [5] (Homo sapiens, SH-SY5Y, 24 h, read-out: LDH IC50, differentiated SH-SY5Y cells, 24 h exposure); 26.5 ± 0.9 µM with SH-SY5Y cells [5] (Homo sapiens, SH-SY5Y, 24 h, read-out: LDH IC50, undifferentiated SH-SY5Y cells, 24 h exposure). Moreover, the hazard classification entry in data set [1] is listed as “Class II”. Further, the “rat oral LD50” value in the data set on rat is 1180 mg/kg.

Source of the values: PMC10216341 (Brain Sciences, 2023).
